This is an account of results in US6893830B1, “Method of screening oxysterol activation of LXRα” (The Board of Regents of the University of Texas System, priority 1996, dated 2005).

The structures appear in SMILES notation.

The target of the test is T1, LXRα (Homo sapiens, UniProt Q13133).
T1 sequence (Q13133 1-447): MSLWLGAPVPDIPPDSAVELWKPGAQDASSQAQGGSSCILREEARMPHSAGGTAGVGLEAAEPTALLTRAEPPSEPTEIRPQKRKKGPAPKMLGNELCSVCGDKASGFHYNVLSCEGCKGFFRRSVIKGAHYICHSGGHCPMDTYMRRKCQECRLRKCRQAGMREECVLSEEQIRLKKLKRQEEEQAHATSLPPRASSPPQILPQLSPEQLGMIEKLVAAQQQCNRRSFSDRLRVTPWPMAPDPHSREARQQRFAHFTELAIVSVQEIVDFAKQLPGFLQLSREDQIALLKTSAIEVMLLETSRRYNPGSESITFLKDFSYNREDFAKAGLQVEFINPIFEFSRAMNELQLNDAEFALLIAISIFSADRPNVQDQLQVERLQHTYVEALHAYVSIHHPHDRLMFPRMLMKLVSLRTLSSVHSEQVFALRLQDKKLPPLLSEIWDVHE
T1 sequence (P19793 1-462 partner): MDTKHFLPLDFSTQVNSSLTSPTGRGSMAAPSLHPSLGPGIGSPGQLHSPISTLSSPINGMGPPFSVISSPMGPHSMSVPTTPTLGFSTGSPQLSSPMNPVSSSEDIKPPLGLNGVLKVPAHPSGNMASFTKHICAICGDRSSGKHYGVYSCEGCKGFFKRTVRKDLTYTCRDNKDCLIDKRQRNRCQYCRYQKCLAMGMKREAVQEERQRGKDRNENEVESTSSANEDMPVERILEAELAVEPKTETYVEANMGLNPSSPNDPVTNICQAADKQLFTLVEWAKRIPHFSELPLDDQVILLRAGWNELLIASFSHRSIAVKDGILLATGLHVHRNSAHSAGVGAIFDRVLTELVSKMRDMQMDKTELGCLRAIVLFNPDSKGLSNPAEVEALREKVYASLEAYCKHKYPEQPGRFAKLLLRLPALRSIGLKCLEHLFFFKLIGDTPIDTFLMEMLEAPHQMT
Nature of the test: LXRα cotransfection assay with TK-LXREx3-LUC reporter in CV-1 cells. The class given is cell-based. Further details: expressed in transfected cells; host or cells: CV-1 monkey kidney cells. The method, then: FIG. 1 Human LXRα is activated by gonad sterols. (A) Transactivation of LXRα ligand binding domain (LBD) with testis extract. CV-1 cells were cotransfected with a GAL4 responsive luciferase reporter plasmid and an expression plasmid encoding no receptor or a chimeric receptor composed of the GAL4 DNA binding domain fused to the LXRα ligand binding domain (LBD) (GAL4-LXRα)^3. After transfection, cells were treated with ethanol (ETOH) or 1% of the concentrated testis extract. (B) Transactivation of LXRα with follicular fluid meiosis activating substance (FF-MAS). CV-1 cells were cotransfected with an LXRα responsive reporter plasmid and the receptor expression plasmids for LXRα alone or with RXRα. After transfection, cells were treated with ETOH or […] FF-MAS.
FIG. 2 LXRα is activated by a specific subset of oxysterols. (A) Specificity of LXRα activators. Shown is a representative group from 70 compounds evaluated for LXRα activity (10 μM) in cotransfection assays as described in FIG. 1B. […] (B) The the structure-activity relationship of LXRα activators. Data compiled from FIG. 2A and other experiments (not shown) reveal that the position of the hydroxyl on the cholesterol backbone is a determinant of LXRα activity. […] Dose response curves for LXRα activators were generated in CV-1 cell cotransfection assays as described in FIG. 1B.
Organic extraction of breeding bull testis was performed as described^6. Briefly, 12 grams of lyophilized testis was extracted with N-heptane and lipids were concentrated by roto-evaporation. Aliquots representing 1% of this material were assayed. FF-MAS was synthesized as described^18. Transient transfections in CV-1 monkey kidney cells were performed in triplicate in 48-well plates as described^3 with media containing 5% cabosil-treated calf bovine serum.
Transfections were performed in FIG. 1A using 80 ng of TK-MH100x4-LUC reporter and 30 ng of CMX-GAL4-hLXRα expression plasmids per well; and in FIG. 1B using 50 ng of TK-LXREx3-LUC reporter and 25 ng of CMX-hLXRa alone or with 25 ng CMX-hRXRa expression plasmids per well. Candidate ligands were dissolved in ethanol and added 8 hours post-transfection. As an internal standard, 50 ng of CMX-β gal was included in all transfections. All plasmid constructs and determinations of luciferase and β-galactosidase activities have been described^3. To construct CMX-LXRα, the hLXRα cDNA insert was excised from the plasmid pXR2DRV (Willy, et al., 1995, Genes Dev. 9: 1033-1045) with Kpnl and BamHI and was ligated into the expression vector CMX. CMX-βgal was constructed by ligating the β-galactosidase gene into the expression vector CMX. Chimeric Gal4-receptor expression plasmid (CMX-GAL4-LXRα) was constructed by first ligating the GAL4 portion of pSC424 (Sadowski, I. and M. Ptashne, 1989, Nucleic Acids Res. 19: 7539-7530) into the HindIII/SacI sites of pCMX (Umesono, et al., 1991, Cell 65: 1255-1266) to create pCMX-GAL4. This vector contains the CMV promoter fused to the coding sequence for GAL4 (1-147), followed by inframe polylinker cloning sites and translational stop codons. The cDNAs encoding the ligand-binding domain (LBD) of hLXRα (amino acids 166-447) was then ligated into the polylinker to create CMX-GAL4-LXRα.
Reporter plasmids for these studies were constructed by ligating the appropriate oligonucleotides into the HindIII site of the TK-LUC vector to create TK-LXREx3-LUC, TK-MH100x4-LUC (Kang, T., et al., 1993, J. Biol Chem. 268: 9629-9635). The sense strand of the LXRE oligonucleotide used to construct the reporter plasmid TK-LXREx3-LUC was 5′agctt[…]3′ (SEQ. ID. NO. 1). All constructs were verified by sequencing. Data are presented as relative light units (RLUs) and represent the mean of triplicate assays±standard error. […]

Turning to `CC(C)CC[C@@H](O)[C@@H](C)[C@H]1CC[C@H]2[C@@H]3CC=C4C[C@@H](O)CC[C@]4(C)[C@H]3CC[C@]12C` [22(R)-hydroxycholesterol], a half-maximal response (EC50) required 1.5 µM.
